Reference: article PMC12696090, “Enzyme engineering of cytochrome P450 RosC provides mechanistic insights into factors controlling iterative oxidation” (Applied Microbiology and Biotechnology, 2025)

Columns and labels:
[1] = biological target: T1, RosC lacking the N-terminal 21 residues (Micromonospora rosaria, UniProt I7HHD0); assay: X-ray crystal structure; format: binding; settings: 2.3 Å; active site, C-20 oriented toward heme iron
T1 construct: N-terminal 21 residues deleted, His-tag cut with thrombin, expressed in E. coli BL21(DE3); crystallization construct

NHis-RosC [2] = biological target: T2, NHis-RosC (Micromonospora rosaria, UniProt I7HHD0); assay: spectral substrate-binding assay (difference spectra); settings: 50 mM Tris-HCl pH 7.5, 20% glycerol, room temperature, 1 μM enzyme; Type II spectral change
T2 construct: full-length, N-terminal His-tag kept (pET28b), expressed in E. coli BL21(DE3)

NHis-RosC [3] = biological target: T3, NHis-RosC (Micromonospora rosaria, UniProt I7HHD0, P107S/L176Q); assay: as above; settings: 50 mM Tris-HCl pH 7.5, 20% glycerol, room temperature, 1 μM enzyme; Type II spectral change
T3 construct: full-length, N-terminal His-tag kept (pET28b), expressed in E. coli BL21(DE3)

Kd (NHis-RosC [2]) [nM] | Kd (NHis-RosC [3]) [nM] | Structure (SMILES) | X-ray crystal structure [1]
 |  | CC[C@H]1OC(=O)C[C@@H](O)[C@H](C)[C@@H](O[C@@H]2O[C@H](C)C[C@H](N(C)C)[C@H]2O)[C@@H](CCO)C[C@@H](C)C(=O)/C=C/[C@]2(C)O[C@H]2[C@@H]1C [RS-A] | crystal structures of the RosC in complex with RS-A and RS
1400 ± 300 | 1000 ± 200 | CC[C@H]1C[C@@H](C)C(=O)/C=C/[C@]2(C)O[C@H]2[C@H](C)[C@@H](CC)OC(=O)C[C@@H](O)[C@H](C)[C@H]1O[C@@H]1O[C@H](C)C[C@H](N(C)C)[C@H]1O [RS-B] | The crystal structure of RosC bound to RS-B
 |  | CC[C@H]1OC(=O)C[C@@H](O)[C@H](C)[C@@H](O[C@@H]2O[C@H](C)C[C@H](N(C)C)[C@H]2O)[C@@H](CC=O)C[C@@H](C)C(=O)/C=C/[C@]2(C)O[C@H]2[C@@H]1C [RS] | crystal structures of the RosC in complex with RS-A and RS
